Results as given in patent publication US4604397A, “Certain benzo-(pyrano and thiopyrano)-pyridines, useful as CNS agents” (Ciba-Geigy Corporation, priority 1985, dated 1986).
Counter-ions that a name gives are not always drawn.

Assays:
[1] = molecular target: presynaptic dopamine receptor; assay: dopamine binding assay in vitro: displacement of 3H-ADTN from calf-caudate nucleus membranes; design: species or system calf (bovine); settings: 0.2 nM 3H-ADTN, 60 minutes at 25° C.
Experimental: The presynaptic dopamine receptor binding properties indicative of the presynaptic dopamine receptor regulatory, e.g. agonistic activity, of the compounds of the invention are determined in the dopamine binding assay in vitro by the following method involving the displacement of the dopamine agonist 2-amino-6,7-dihydroxy-1,2,3,4-tetrahydronaphthalene (^3 H-ADTN) from membranes from calf-caudate nucleus. [Eur. J. Pharmacol. 55, 137 (1979)].
Bovine brain tissue is homogenized in 50 volumes (based on original tissue weight) of 50 mM Tris-HCl buffer, pH 7.7 at 25° C., using a Brinkman Polytron, setting 6 for 20 seconds. The homogenate is centrifuged at 50,000×g for 10 minutes. The pellet is resuspended in 50 volumes of 50 mM Tris-HCl buffer, pH 7.7 and recentrifuged. The final pellet is resuspended in 200 volumes of incubation media containing: 50 mM Tris-HCl buffer, pH 7.7; 0.1% ascorbic acid; 0.001 mM pargyline; 120 mM NaCl; 5 mM KCl, 2 mM CaCl2 and 1 mM MgCl2.
In the binding assay, triplicate 2 ml samples (equivalent to 5 mg/ml original tissue) of the membrane suspension are incubated for 60 minutes at 25° C. with 0.2 nM ^3 H-ADTN without or in the presence of various concentrations of test compound in solvent. The reaction is terminated by filtering with 5 ml of cold 50 mM Tris-HCl buffer pH 7.7. The filters are placed in scintillation vials with 5 ml of scintillation solution, disrupted by vigorous mechanical shaking for 90 minutes, and counted for radioactivity.
The IC50 values represent the concentration of test compounds required to inhibit the specific binding of 0.2 nM ^3 H-ADTN by 50%, and are determined graphically.

serotonin receptor [2] = molecular target: T1, serotonin receptor (Bos taurus, UniProt F1MGM3); assay: 3H-serotonin binding assay in vitro, calf brain (caudate nuclei) membranes; settings: 7 nM 3H-serotonin, 10 minutes at 37° C.
T1 construct: Caudate nuclei are dissected from freshly obtained calf brains; from tissue; host or cells: calf brain caudate nuclei membranes
T1 sequence (F1MGM3 1-403): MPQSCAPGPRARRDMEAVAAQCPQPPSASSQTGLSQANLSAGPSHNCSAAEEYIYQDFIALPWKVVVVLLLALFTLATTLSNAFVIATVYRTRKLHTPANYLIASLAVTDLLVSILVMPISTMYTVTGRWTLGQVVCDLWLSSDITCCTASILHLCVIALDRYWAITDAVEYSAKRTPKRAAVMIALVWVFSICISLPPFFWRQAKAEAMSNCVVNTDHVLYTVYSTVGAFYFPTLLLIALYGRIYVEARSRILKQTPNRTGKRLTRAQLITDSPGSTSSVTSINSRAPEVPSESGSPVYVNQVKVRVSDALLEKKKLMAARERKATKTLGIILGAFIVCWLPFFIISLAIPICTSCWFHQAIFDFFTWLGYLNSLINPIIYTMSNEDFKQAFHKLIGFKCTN
Experimental: The serotonin binding properties indicative of serotonin agonistic receptor regulating activity of compounds of the invention are determined in the in vitro binding assay as follows:
Membrane suspensions are prepared from calf brain and incubated with ^3 H-serotonin by a modification of the procedure described by Bennett and Snyder. Caudate nuclei are dissected from freshly obtained calf brains; they are frozen and stored at -70° C. for up to 3 months. For each binding experiment, a portion of tissue is homogenized with a Brinkmann Polytron in 50 volumes (w/v) of ice-cold 50 mM Tris-HCl (pH 7.7 at 25° C.) containing 10 mM dithiothreitol. The homogenate is centrifuged twice at 50,000×g for 10 minutes with rehomogenization of the pellet in fresh buffer between spins. The final pellet is homogenized in 100 volumes (based on original tissue weight) cold 50 mM Tris-HCl (pH 7.6 at 25° C.) containing […] pargyline, 0.1% ascorbic acid, 120 mM NaCl, 5 mM KCl, 2 mM CaCl2, 1 mM MgCl2 and 10 mM dithiothreitol. The suspension is warmed in a 37° C. bath for 10 minutes and then returned to ice.
In the binding assay, 2-ml aliquots of the final tissue suspension (equivalent to 20 mg of original wet tissue) are added to tubes (on ice) containing ^3 H-serotonin with or without test compound freshly dissolved in 0.1% ascorbic acid. The final concentration of ^3 H-serotonin is 7 nM. Test compounds are present over a wide range of concentrations, with triplicate tubes for each concentration. Tubes are incubated at 37° C. for 10 minutes and the suspensions are immediately filtered under vacuum through Whatman GF/B glass fiber filters. The filters are washed with 10 ml of cold Tris-HCl (pH 7.7 at 25° C.), placed in scintillation vials with 12 ml of scintillation solution, disrupted by vigorous mechanical shaking for 90 minutes and counted for radioactivity. The IC50 values (concentrations of test compounds required to inhibit the specific binding of 7 nM ^3 H-serotonin by 50%) are determined graphically.

serotonin receptor [3] = assay: serotonin receptor agonist activity in vivo: decrease in accumulation of 5-hydroxytryptophane in rat brain
Experimental: The serotonin receptor agonist activity is determined in vivo by measuring the decrease in the accumulation of 5-hydroxytryptophane in the brain after administration of a test compound in the rat, as described in J. Med. Chem. 21, 864 (1978).

dopamine autoreceptor = assay: rat gamma-butyrolactone (GBL) model, inhibition of GBL-induced DOPA accumulation (presynaptic dopamine agonist activity); assay type: in vivo
Experimental: Indicative of potential neuroleptic activity of the compounds of the invention, the in-vivo presynaptic dopamine agonist activity (also called dopamine autoreceptor agonist activity) is determined in the rat gamma-butyrolactone (GBL) model by a modification of the procedure described by Walters and Roth, Naunyn Schmiedeberg's Arch. Pharmacol. 296, 5 (1976). In this model, a presynaptic dopamine agonist inhibits the GBL-induced accumulation of the dopamine precursor DOPA after pretreatment with 3-hydroxybenzylhydrazine (NSD-1015), a DOPA decarboxylase inhibitor.
Test compounds are dissolved in 0.9% saline, with sodium metabisulfite to prevent oxidation, if required. […] Dihydroxyphenylalanine (DOPA) is analyzed by High Pressure Liquid Chromatography/Electrochemistry (HPLC/EC) techniques using a Bio-analytical Systems (BAS) Model LC-150 series Liquid Chromatograph. […] Compounds are detected with an electro-chemical detector having an oxidizing potential of 0.7 volts and sensitivity setting of 20 nAmps/V. Tissue concentrations and recoveries are calculated by using the internal standard dihydroxybenzylamine (DHBA). […] Data is statistically analysed by one-way Analysis of Variance with Duncan's Multiple Comparison Test. The activity of the test compounds is determined as the percent inhibition of DOPA accumulation at a given dose. […]

[4] = tested on: reserpine-induced hypomotility in the rat; assay: reversal of reserpine-induced hypomotility in the rat; assay type: in vivo; settings: ip
Text: In vivo such selectivity can be determined by measurement of the degree of reversal of reserpine induced hypomotility in the rat. The relative absence of such reversal at effective doses (e.g. in the GBL model) is indicative of selective presynaptic dopamine agonist activity.

## CCCCN1CCC[C@@H]2c3cccc(O)c3OC[C@H]21 (relative stereo) [trans-4-butyl-7-hydroxy-1,2,3,4a,5,10b-hexahydro-4H-[1]-benzopyran-[3,4-b]pyridine hydrochloride]
[1]
  IC50: ~20 nM

## COc1c(Br)ccc2c1OC[C@@H]1[C@@H]2CCCN1C.Cl (relative stereo) [trans-8-bromo-7-methoxy-4-methyl-1,2,3,4a,5,10b-hexahydro-4H-[1]-benzopyrano[3,4-b]pyridine hydrochloride]
Serotonin receptor [2]
  IC50: ~20 nM
Serotonin receptor [3]; 2.5 mg/kg s.c.
  decrease of accumulation of 5-hydroxytryptophane in the frontoparietal cortex of rat brain: about 25%

## COc1cccc2c1OC[C@@H]1[C@@H]2CCCN1C (relative stereo) [trans-7-methoxy-4-methyl-1,2,3,4a,5,10b-hexahydro-4H-[1]-benzopyrano[3,4-b]pyridine hydrochloride]
Serotonin receptor [2]
  IC50: ~80 nM

## CCCN1CCC=C2c3cc(O)ccc3SCC21 (stereo not shown) [9-hydroxy-4-propyl-2,3,4a,5-tetrahydro-4H-[1]-benzothiopyrano[3,4-b]pyridine hydrochloride]
[1]
  IC50: ~10 nM

## CCCN1CCC[C@@H]2c3c(OC)cccc3OC[C@H]21 (relative stereo) [trans-10-methoxy-4-propyl-1,2,3,4a,5,10b-hexahydro-4H-[1]-benzopyrano[3,4-b]pyridine hydrochloride]
Serotonin receptor [2]
  IC50: ~20 nM

## Cc1ccc2c(c1O)OC[C@@H]1[C@@H]2CCCN1C.Cl (relative stereo) [trans-7-hydroxy-4,8-dimethyl-1,2,3,4a,5,10b-hexahydro-4H-[1]-benzopyrano[3,4-b]pyridine hydrochloride]
Serotonin receptor [3]; dose of 0.1 mg/Kg, compared with about 25% decrease of the 8-bromo-7-methoxy-4-methyl compound
  decrease of accumulation of 5-hydroxytryptophane in the frontoparietal cortex of rat brain (in words): similarly effective

## CCCN1CCC[C@@H]2c3cccc(O)c3OC[C@H]21 (relative stereo) [trans-7-hydroxy-4-propyl-1,2,3,4a,5,10b-hexahydro-4H-[1]-benzopyrano[3,4-b]pyridine hydrochloride]
[1]
  IC50: ~60 nM

## CCCN1CCC[C@@H]2c3cc(O)ccc3OC[C@H]21.Cl (relative stereo) [trans-9-hydroxy-4-propyl-1,2,3,4a,5,10b-hexahydro-4H-[1]-benzopyrano[3,4-b]pyridine hydrochloride]
[1]
  IC50: ~30 nM
Dopamine autoreceptor; ip, read-out: ED50 in the GBL model (dose at which DOPA accumulation is inhibited by 50%)
  ED50: ~0.16 mg/kg
Dopamine autoreceptor; oral, dose of about 0.5 mg/kg
  activity in the GBL model orally: active
[4]
  ED50: ~10 mg/kg

## CN1CCC[C@@H]2c3c(O)cccc3OC[C@H]21 (relative stereo) [trans-10-hydroxy-4-methyl-1,2,3,4a,5,10b-hexahydro-4H-[1]-benzopyrano[3,4-b]pyridine hydrochloride]
Serotonin receptor [2]
  IC50: ~400 nM
